Test results from ChEMBL document CHEMBL1127708, “Aromatase inhibitors. Syntheses and structure-activity studies of novel pyridyl-substituted indanones, indans, and tetralins” (J Med Chem, 1994).

Legend:
Rattus norvegicus [1] = species: Rattus norvegicus; format: functional; conditions: dose 10 mg/kg
Rattus norvegicus [2] = species: Rattus norvegicus; format: functional; conditions: dose 10 mg/kg; remark: listed apart in the source
Rattus norvegicus [3] = species: Rattus norvegicus; format: functional; conditions: dose 10 mg/kg; remark: listed apart in the source
Rattus norvegicus [4] = species: Rattus norvegicus; format: functional; conditions: dose 10 mg/kg; remark: listed apart in the source
Rattus norvegicus [5] = species: Rattus norvegicus; format: functional; conditions: dose 10 mg/kg; remark: listed apart in the source
Rattus norvegicus [6] = species: Rattus norvegicus; format: functional; conditions: dose 10 mg/kg; remark: listed apart in the source
Rattus norvegicus [7] = species: Rattus norvegicus; format: functional; conditions: dose 10 mg/kg; remark: listed apart in the source
Rattus norvegicus [8] = species: Rattus norvegicus; format: functional
Rattus norvegicus [9] = species: Rattus norvegicus; format: functional; remark: listed apart in the source
Rattus norvegicus [10] = species: Rattus norvegicus; format: functional; remark: listed apart in the source
Rattus norvegicus [11] = species: Rattus norvegicus; format: functional; remark: listed apart in the source
Rattus norvegicus [12] = species: Rattus norvegicus; format: functional; remark: listed apart in the source
Rattus norvegicus [13] = species: Rattus norvegicus; format: functional; conditions: dose 10 mg/kg; remark: listed apart in the source
Rattus norvegicus [14] = species: Rattus norvegicus; format: functional; remark: listed apart in the source
Aromatase = target: T1, Aromatase (Rattus norvegicus, UniProt P22443)
T1 sequence (P22443 whole entry): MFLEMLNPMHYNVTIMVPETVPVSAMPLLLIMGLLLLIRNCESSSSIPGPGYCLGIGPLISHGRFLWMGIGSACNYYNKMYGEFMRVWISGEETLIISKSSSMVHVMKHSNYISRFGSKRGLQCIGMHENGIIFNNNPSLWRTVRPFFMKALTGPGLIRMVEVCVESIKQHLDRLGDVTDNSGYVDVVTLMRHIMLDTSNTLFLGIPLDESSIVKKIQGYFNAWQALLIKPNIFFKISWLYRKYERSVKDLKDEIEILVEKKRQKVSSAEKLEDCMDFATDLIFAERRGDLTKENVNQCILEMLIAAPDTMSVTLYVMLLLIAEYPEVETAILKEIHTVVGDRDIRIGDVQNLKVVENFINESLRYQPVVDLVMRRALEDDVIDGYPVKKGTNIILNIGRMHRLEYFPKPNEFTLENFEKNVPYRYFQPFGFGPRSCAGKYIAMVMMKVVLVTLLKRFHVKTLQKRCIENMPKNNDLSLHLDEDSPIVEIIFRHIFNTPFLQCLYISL

Rattus norvegicus [15] = species: Rattus norvegicus; format: functional; conditions: dose 10.3 mg/kg
Rattus norvegicus [16] = species: Rattus norvegicus; format: functional; conditions: dose 10.3 mg/kg; remark: listed apart in the source
Rattus norvegicus [17] = species: Rattus norvegicus; format: functional; conditions: dose 10.3 mg/kg; remark: listed apart in the source
Rattus norvegicus [18] = species: Rattus norvegicus; format: functional; conditions: dose 10.3 mg/kg; remark: listed apart in the source
Rattus norvegicus [19] = species: Rattus norvegicus; format: functional; conditions: dose 10.3 mg/kg; remark: listed apart in the source
Rattus norvegicus [20] = species: Rattus norvegicus; format: functional; conditions: dose 10.3 mg/kg; remark: listed apart in the source
Rattus norvegicus [21] = species: Rattus norvegicus; format: functional; conditions: dose 10.3 mg/kg; remark: listed apart in the source

**Q.** `CCC1(c2ccc(N)cc2)CCC(=O)NC1=O` (stereo not drawn) [AMINOGLUTETHIMIDE] was tested. Which “Change of tumor area” value (Rattus norvegicus [1]) did it give?
**A.** 54%

**Q.** What about the No. of tumors (Rattus norvegicus [2]) of the same molecule?
**A.** 7

**Q.** And the No. of tumors (Rattus norvegicus [3])?
**A.** 35

**Q.** And the “Change of tumor area” value (Rattus norvegicus [4])?
**A.** 4%

**Q.** And the Of tumors (Rattus norvegicus [5])?
**A.** 6%

**Q.** What about the “Change of tumor area” value (Rattus norvegicus [6]) of the same molecule?
**A.** 17%

**Q.** And the “Change of tumor area” value (Rattus norvegicus [7])?
**A.** 23%

**Q.** What does the source list for `CCC(=O)OC1CCC2C3CCC4=CC(=O)CCC4C3CCC12C` (stereo not drawn)?
**A.** No. of tumors (Rattus norvegicus [8]): 36; Change of tumor area (Rattus norvegicus [9]): 36%; No. of tumors (Rattus norvegicus [10]): 12; Change of tumor area (Rattus norvegicus [11]): 19%; Change of tumor area (Rattus norvegicus [12]): 25%; Change of tumor area (Rattus norvegicus [13]): 141%; Change of tumor area (Rattus norvegicus [14]): 19%

**Q.** Which Effect (Aromatase) does the source give for `COc1ccc2c(c1)CC(Cc1ccncc1)C2=O` (stereo not drawn) here?
**A.** 150

**Q.** For `Oc1cccc2c1CCC(Cc1ccncc1)C2` (stereo not drawn), which No. of tumors (Rattus norvegicus [15]) is on record?
**A.** 4

**Q.** And the “Change of tumor area” value (Rattus norvegicus [16])?
**A.** 16%

**Q.** And the “Change of tumor area” value (Rattus norvegicus [17])?
**A.** 19%

**Q.** And the “Change of tumor area” value (Rattus norvegicus [18])?
**A.** 24%

**Q.** What about the “Change of tumor area” value (Rattus norvegicus [19]) of the same molecule?
**A.** 123%

**Q.** What about the No. of tumors (Rattus norvegicus [20]) of the same molecule?
**A.** 37

**Q.** And the “Change of tumor area” value (Rattus norvegicus [21])?
**A.** 41%

**Q.** With `O=C1c2ccc(O)cc2CC1Cc1ccncc1` (stereo not drawn) as the molecule, how does the Effect (Aromatase) read?
**A.** 160
